Experiment: recombinant barcode read abundance after kanamycin selection (control-corrected) (log10(CPM+1)); higher = more efficient recombination; sequences stand for … in AGTGCAGAGAAAATCGGCCAGTTTTCTCTGCCTGCAGTCCGCATGCCGT…AGATTTATGCAGCGGACTGCCTTTCTCCCAAAGTGATAAACCGGACAGTATCATGGACCGGTTTTCCCGGTAATCCGTATTTGCAAGGTTGGTTTCACT; site = the 11-nt target
Procedure, shortened: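 Pooled oligos, each joining a target to an IS621 bridge RNA target-binding loop, were cloned and co-electroporated with a donor plasmid into E. coli. Selective plates carried chloramphenicol/ampicillin/kanamycin and 0.1 mM IPTG, while chloramphenicol/ampicillin LB agar served as control, with two replicates of each. Recombination efficiency rests on averaged, control-corrected counts per million of barcodes at recombinant junctions, shown as log10(CPM+1).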
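Also: IS621 recombinase and bridge RNA in Escherichia coli cells.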

Sequence | recombinant barcode read abundance (log10)
GGAGTCCCTTGGGTTCTAACCTGTTGCGA (site GGAGTCCCTTC) | 2.39
GGAGTCCCTTGGGTTCTAACCTGTTGCGA (site GGATTCCCTTG) | 0.0458
GGATACACTTGGGTTCTAACCTGTTGCCA (site GGATACACTTG) | 1.35
GGATACACTTGGGTTCTAACCTGTTGCCA (site GGATCCACTTG) | 0.041
GGATACACTTGGGTTCTAACCTGTTGCCA (site GGATGCACTTG) | 0.0123
GGATACACTTGGGTTCTAACCTGTTGCCA (site GGATTCACTTG) | 0.274
GGATGGACTTGGGTTCTAACCTGTTGCTT (site GGATAGCCTAA) | 0.0315
GGATGGACTTGGGTTCTAACCTGTTGCTT (site GGATGGACTAA) | 1.96
GGCAAACCTTGGGTTCTAACCTGTTGCGG (site CATGGGACTAT) | 0.0629
GGCAAACCTTGGGTTCTAACCTGTTGCGG (site GGCAAACCTCC) | 2.09
GGCAACTCTTGGGTTCTAACCTGTTGCCT (site AAGTTAGCTCC) | 0
GGCAACTCTTGGGTTCTAACCTGTTGCCT (site GGCAACTCTAG) | 0.0853
GGCACCGCTTGGGTTCTAACCTGTTGCCT (site GGCACAGCTAG) | 0.0859
GGCACCGCTTGGGTTCTAACCTGTTGCCT (site GGCACCGCTAG) | 0.905
GGCACCGCTTGGGTTCTAACCTGTTGCCT (site GGCACGGCTAG) | 0.164
GGCACCGCTTGGGTTCTAACCTGTTGCCT (site GGCACTGCTAG) | 0.0527
GGCAGACCTTGGGTTCTAACCTGTTGCCT (site GGCAGACCTAG) | 1
GGCAGACCTTGGGTTCTAACCTGTTGCCT (site GGCAGTCCTCG) | 0.373
GGCATATCTTGGGTTCTAACCTGTTGCCT (site AGTATATCTAG) | 0.0602
GGCATATCTTGGGTTCTAACCTGTTGCCT (site GGCATATCTAG) | 0.048
GGCATCCCTTGGGTTCTAACCTGTTGCCT (site GGCATCCCTAG) | 0.337
GGCATCCCTTGGGTTCTAACCTGTTGCCT (site GGCCTCCCTAG) | 0.258
GGCATCCCTTGGGTTCTAACCTGTTGCCT (site GGCGTCCCTAG) | 0.184
GGCATCCCTTGGGTTCTAACCTGTTGCCT (site GGCTTCCCTAG) | 0.145
GGCCGGACTTGGGTTCTAACCTGTTGCCT (site GGCCGGACTAG) | 0.937
GGCCGGACTTGGGTTCTAACCTGTTGCCT (site GGCCGGCCTAG) | 0.253

Sequence | recombinant barcode read abundance (log10)
GGCCGGACTTGGGTTCTAACCTGTTGCCT (site GGCCGGGCTAG) | 0.112
GGCCGGACTTGGGTTCTAACCTGTTGCCT (site GGCCGGTCTAG) | 0.021
GGCCGGGCTTGGGTTCTAACCTGTTGCCT (site GGCCGGACTAG) | 0.143
GGCCGGGCTTGGGTTCTAACCTGTTGCCT (site GGCCGGCCTAG) | 0.0912
GGCCGGGCTTGGGTTCTAACCTGTTGCCT (site GGCCGGGCTAG) | 0.219
GGCCGGGCTTGGGTTCTAACCTGTTGCCT (site GGCCGGTCTAG) | 0.0839
GGCCGTCCTTGGGTTCTAACCTGTTGCAG (site ACCCGTCCTCT) | 0.184
GGCCGTCCTTGGGTTCTAACCTGTTGCAG (site GGCCGTCCTCT) | 0.118
GGCGCCTCTTGGGTTCTAACCTGTTGCGC (site AATCTAACTAG) | 0.139
GGCGCCTCTTGGGTTCTAACCTGTTGCGC (site GGCGCCTCTGC) | 0.777
GGCGCGTCTTGGGTTCTAACCTGTTGCCT (site GGCGCATCTAG) | 0.607
GGCGCGTCTTGGGTTCTAACCTGTTGCCT (site GGCGCGTCTAG) | 0.557
GGCGTCACTTGGGTTCTAACCTGTTGCCT (site GGCGACCCTAG) | 0.111
GGCGTCACTTGGGTTCTAACCTGTTGCCT (site GGCGTCACTAG) | 1.24
GGCTAACCTTGGGTTCTAACCTGTTGCCT (site CATCGGACTTT) | 0.0416
GGCTAACCTTGGGTTCTAACCTGTTGCCT (site GGCTAACCTAG) | 1.33
GGCTACCCTTGGGTTCTAACCTGTTGCAA (site CTGGTATCTAA) | 0.148
GGCTACCCTTGGGTTCTAACCTGTTGCAA (site GGCTACCCTTT) | 0.774
GGCTAGACTTGGGTTCTAACCTGTTGCGG (site GGCTAGACTCC) | 1.43
GGCTAGACTTGGGTTCTAACCTGTTGCGG (site GGCTCTACTCC) | 0.0457
GGCTTCTCTTGGGTTCTAACCTGTTGCCT (site GGCTTCTCTAG) | 1.22
GGCTTCTCTTGGGTTCTAACCTGTTGCCT (site TGCCTCTCTAG) | 0.0687
GGGAACCCTTGGGTTCTAACCTGTTGCTA (site GGGAACCCTAA) | 0.147
GGGAACCCTTGGGTTCTAACCTGTTGCTA (site GGGAACCCTCA) | 0.132
GGGAACCCTTGGGTTCTAACCTGTTGCTA (site GGGAACCCTGA) | 0.0297
GGGAACCCTTGGGTTCTAACCTGTTGCTA (site GGGAACCCTTA) | 1.29

Sequence | recombinant barcode read abundance (log10)
GGGACCTCTTGGGTTCTAACCTGTTGCGG (site GGGACCTCTAC) | 1.25
GGGACCTCTTGGGTTCTAACCTGTTGCGG (site GGGACCTCTCC) | 1.94
GGGATGTCTTGGGTTCTAACCTGTTGCCT (site GAGATGTCTAG) | 0.444
GGGATGTCTTGGGTTCTAACCTGTTGCCT (site GCGATGTCTAG) | 0.128
GGGATGTCTTGGGTTCTAACCTGTTGCCT (site GGGATGTCTAG) | 2.04
GGGATGTCTTGGGTTCTAACCTGTTGCCT (site GTGATGTCTAG) | 0.211
GGGCAGCCTTGGGTTCTAACCTGTTGCCT (site GGGCAACCTAC) | 0.0939
GGGCAGCCTTGGGTTCTAACCTGTTGCCT (site GGGCAGCCTAG) | 0.458
GGGCATCCTTGGGTTCTAACCTGTTGCTT (site GGGCATCCTAA) | 0.652
GGGCATCCTTGGGTTCTAACCTGTTGCTT (site GTGCACCCTAA) | 0.637
GGGCCGGCTTGGGTTCTAACCTGTTGCCG (site AATGATTCTAC) | 0.292
GGGCCGGCTTGGGTTCTAACCTGTTGCCG (site GGGCCGGCTCG) | 1.14
GGGCCTGCTTGGGTTCTAACCTGTTGCCA (site CTCGACCCTAT) | 0
GGGCCTGCTTGGGTTCTAACCTGTTGCCA (site GGGCCTGCTTG) | 1.18
GGGCTGTCTTGGGTTCTAACCTGTTGCTT (site GGGCTGTCTAA) | 0.705
GGGCTGTCTTGGGTTCTAACCTGTTGCTT (site GGGGTGTCTCA) | 0.37
GGGGAGCCTTGGGTTCTAACCTGTTGCTG (site GGGGAGCCTCA) | 2.9
GGGGAGCCTTGGGTTCTAACCTGTTGCTG (site GGGGAGTCTAA) | 0.358
GGGGATCCTTGGGTTCTAACCTGTTGCCT (site GAGGATCCTAG) | 0.679
GGGGATCCTTGGGTTCTAACCTGTTGCCT (site GGGGATCCTAG) | 2.45
GGGGCACCTTGGGTTCTAACCTGTTGCAT (site GGGGCACCTAA) | 1.56
GGGGCACCTTGGGTTCTAACCTGTTGCAT (site GGGGCACCTAC) | 0.357
GGGGCACCTTGGGTTCTAACCTGTTGCAT (site GGGGCACCTAG) | 0.598
GGGGCACCTTGGGTTCTAACCTGTTGCAT (site GGGGCACCTAT) | 2.89
GGGGCCTCTTGGGTTCTAACCTGTTGCTT (site GGGGCATCTAA) | 0.481
